Organism: Rattus norvegicus
Test: DrugMatrix - Regimen: Daily Repeat
Assay type: toxicity, organism-based, Sprague-Dawley
Design: regimen Daily Repeat, gender Male, age 6-8 weeks
Settings: in vivo, po, route oral GAVAGE, vehicle .5 % CMC; for ABSOLUTE BASOPHIL / ABSOLUTE EOSINOPHIL / ABSOLUTE LYMPHOCYTE / ABSOLUTE MONOCYTE / ABSOLUTE SEGMENTED NEUTROPHIL / BASOPHIL / EOSINOPHIL / ERYTHROCYTE COUNT / HEMATOCRIT / HEMOGLOBIN / LEUKOCYTE COUNT / LYMPHOCYTE / MEAN CORPUSCULAR HEMOGLOBIN / MEAN CORPUSCULAR HEMOGLOBIN CONCENTRATION / MEAN CORPUSCULAR VOLUME / MONOCYTE / NEUTROPHIL / NUCLEATED RED BLOOD CELLS / PLATELET COUNT: tissue Blood; for ALANINE AMINOTRANSFERASE / ALBUMIN / ALKALINE PHOSPHATASE / ASPARTATE AMINOTRANSFERASE / BLOOD UREA NITROGEN / CARBON DIOXIDE / CHLORIDE / CHOLESTEROL / CREATINE PHOSPHOKINASE / CREATININE / GLUCOSE / LACTATE DEHYDROGENASE / LIPASE / PHOSPHORUS / POTASSIUM / SODIUM / TOTAL BILIRUBIN / TOTAL PROTEIN / URIC ACID: tissue Plasma
[1] = 44 mg/kg, 120 h, dose level Low, time 5 day
[2] = 439 mg/kg, 72 h, dose level High, time 3 day
[3] = 439 mg/kg, 120 h, dose level High, time 5 day

Brc1ccccc1 [BROMOBENZENE]
ABSOLUTE BASOPHIL [1]: 0 CELLS/uL | ABSOLUTE EOSINOPHIL [1]: 0 CELLS/uL | ABSOLUTE LYMPHOCYTE [1]: 9552.67 CELLS/uL | ABSOLUTE MONOCYTE [1]: 143.67 CELLS/uL | ABSOLUTE SEGMENTED NEUTROPHIL [1]: 903.67 CELLS/uL | BASOPHIL [1]: 0% | EOSINOPHIL [1]: 0% | ERYTHROCYTE COUNT [1]: 5.33 x10E6/uL | HEMATOCRIT [1]: 32.83% | HEMOGLOBIN [1]: 12.7 G/DL | LEUKOCYTE COUNT [1]: 10.6 x10E3/uL | LYMPHOCYTE [1]: 90% | MEAN CORPUSCULAR HEMOGLOBIN [1]: 23.83 pg | MEAN CORPUSCULAR HEMOGLOBIN CONCENTRATION [1]: 38.7 G/DL | MEAN CORPUSCULAR VOLUME [1]: 61.57 fL | MONOCYTE [1]: 1.33% | NEUTROPHIL [1]: 8.67% | NUCLEATED RED BLOOD CELLS [1]: 0 /100WBC | PLATELET COUNT [1]: 1057.33 x10E3/uL | ALANINE AMINOTRANSFERASE [1]: 40.67 u/L | ALBUMIN [1]: 4.3 G/DL | ALKALINE PHOSPHATASE [1]: 334.67 u/L | ASPARTATE AMINOTRANSFERASE [1]: 69.67 u/L | BLOOD UREA NITROGEN [1]: 14.67 mg/dL | CARBON DIOXIDE [1]: 26.33 mmol/L | CHLORIDE [1]: 101.67 MEQ/L | CHOLESTEROL [1]: 64.33 mg/dL | CREATINE PHOSPHOKINASE [1]: 162.67 u/L | CREATININE [1]: 0.24 mg/dL | GLUCOSE [1]: 160 mg/dL | LACTATE DEHYDROGENASE [1]: 86.67 u/L | LIPASE [1]: 9.33 u/L | PHOSPHORUS [1]: 11.83 mg/dL | POTASSIUM [1]: 6.35 MEQ/L | SODIUM [1]: 144.7 MEQ/L | TOTAL BILIRUBIN [1]: 0.1 mg/dL | TOTAL PROTEIN [1]: 6.2 G/DL | URIC ACID [1]: 1.67 mg/dL | ABSOLUTE BASOPHIL [2]: 0 CELLS/uL | ABSOLUTE EOSINOPHIL [2]: 46.33 CELLS/uL | ABSOLUTE LYMPHOCYTE [2]: 10833.67 CELLS/uL | ABSOLUTE MONOCYTE [2]: 138 CELLS/uL | ABSOLUTE SEGMENTED NEUTROPHIL [2]: 1815.33 CELLS/uL | BASOPHIL [2]: 0% | EOSINOPHIL [2]: 0.33% | ERYTHROCYTE COUNT [2]: 4.81 x10E6/uL | HEMATOCRIT [2]: 30.27% | HEMOGLOBIN [2]: 11.9 G/DL | LEUKOCYTE COUNT [2]: 12.83 x10E3/uL | LYMPHOCYTE [2]: 85.33% | MEAN CORPUSCULAR HEMOGLOBIN [2]: 24.7 pg | MEAN CORPUSCULAR HEMOGLOBIN CONCENTRATION [2]: 39.3 G/DL | MEAN CORPUSCULAR VOLUME [2]: 62.83 fL | MONOCYTE [2]: 1% | NEUTROPHIL [2]: 13.33% | NUCLEATED RED BLOOD CELLS [2]: 0.33 /100WBC | PLATELET COUNT [2]: 1082.33 x10E3/uL | ALANINE AMINOTRANSFERASE [2]: 59 u/L | ALBUMIN [2]: 4.17 G/DL | ALKALINE PHOSPHATASE [2]: 378.33 u/L | ASPARTATE AMINOTRANSFERASE [2]: 83.67 u/L | BLOOD UREA NITROGEN [2]: 15 mg/dL | CARBON DIOXIDE [2]: 29.33 mmol/L | CHLORIDE [2]: 100.67 MEQ/L | CHOLESTEROL [2]: 84.67 mg/dL | CREATINE PHOSPHOKINASE [2]: 171 u/L | CREATININE [2]: 0.22 mg/dL | GLUCOSE [2]: 160 mg/dL | LACTATE DEHYDROGENASE [2]: 172 u/L | LIPASE [2]: 12 u/L | PHOSPHORUS [2]: 12.47 mg/dL | POTASSIUM [2]: 6.1 MEQ/L | SODIUM [2]: 143.47 MEQ/L | TOTAL BILIRUBIN [2]: 0.13 mg/dL | TOTAL PROTEIN [2]: 5.97 G/DL | URIC ACID [2]: 1.03 mg/dL | ABSOLUTE BASOPHIL [3]: 0 CELLS/uL | ABSOLUTE EOSINOPHIL [3]: 0 CELLS/uL | ABSOLUTE LYMPHOCYTE [3]: 9268 CELLS/uL | ABSOLUTE MONOCYTE [3]: 132.4 CELLS/uL | ABSOLUTE SEGMENTED NEUTROPHIL [3]: 919.6 CELLS/uL | BASOPHIL [3]: 0% | EOSINOPHIL [3]: 0% | ERYTHROCYTE COUNT [3]: 5.45 x10E6/uL | HEMATOCRIT [3]: 32.3% | HEMOGLOBIN [3]: 12.54 G/DL | LEUKOCYTE COUNT [3]: 10.32 x10E3/uL | LYMPHOCYTE [3]: 89.6% | MEAN CORPUSCULAR HEMOGLOBIN [3]: 23 pg | MEAN CORPUSCULAR HEMOGLOBIN CONCENTRATION [3]: 38.82 G/DL | MEAN CORPUSCULAR VOLUME [3]: 59.26 fL | MONOCYTE [3]: 1.2% | NEUTROPHIL [3]: 9.2% | NUCLEATED RED BLOOD CELLS [3]: 0.2 /100WBC | PLATELET COUNT [3]: 1078.8 x10E3/uL | ALANINE AMINOTRANSFERASE [3]: 43.2 u/L | ALBUMIN [3]: 4.4 G/DL | ALKALINE PHOSPHATASE [3]: 375.2 u/L | ASPARTATE AMINOTRANSFERASE [3]: 72.8 u/L | BLOOD UREA NITROGEN [3]: 16.2 mg/dL | CARBON DIOXIDE [3]: 25.2 mmol/L | CHLORIDE [3]: 102.4 MEQ/L | CHOLESTEROL [3]: 77.2 mg/dL | CREATINE PHOSPHOKINASE [3]: 262.4 u/L | CREATININE [3]: 0.2 mg/dL | GLUCOSE [3]: 153.6 mg/dL | LACTATE DEHYDROGENASE [3]: 118.8 u/L | LIPASE [3]: 9.6 u/L | PHOSPHORUS [3]: 12.5 mg/dL | POTASSIUM [3]: 6.84 MEQ/L | SODIUM [3]: 144.22 MEQ/L | TOTAL BILIRUBIN [3]: 0.18 mg/dL | TOTAL PROTEIN [3]: 6.18 G/DL | URIC ACID [3]: 1.92 mg/dL
